“And” between values parts separate entries of the source, which are not always exact repeats. Equal entries are not always repeated.
Assays:
[1] = test system: BT-549; conditions: 72 h
How it was run: (§1)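 Viability of breast cancer cell lines was measured with CellTiter-Blue after 72 h of incubation on compound-loaded 384-well plates. Cells were seeded in 20 µl onto compound dissolved in 5 µl medium, and 2.5 µl reagent was added for 2 h at 37 °C before reading at 560/590 nm. EC50 was fitted from percent-inhibition dose-response data censored at the highest concentration, normalised per plate to vehicle and a positive kill control, with zero drug sensitivity score rows dropped.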

[2] = test system: CAL-120; conditions: 72 h
How it was run: as §1

[3] = test system: HCC1143; conditions: 72 h
How it was run: as §1

[4] = test system: HCC1599; conditions: 72 h
How it was run: as §1

[5] = test system: MDA-MB-436; conditions: 72 h
How it was run: as §1

[6] = test system: MFM-223; conditions: 72 h
How it was run: as §1

[7] = test system: BT-474; assay: normalised viability (% of control), CellTiter-Blue; higher = more viable cells (100 = DMSO, 0 = benzethonium chloride kill control); conditions: incubation time: 72 h
Protocol: (§2)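 DSRT, CellTiter-Blue viability, 72 h incubation. Signal is normalised to DMSO and benzethonium chloride controls. Value is the normalised response at dose 1.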

[8] = test system: BT-549; assay: as above; conditions: incubation time: 72 h
Protocol: as §2

[9] = test system: CAL-120; assay: as above; conditions: incubation time: 72 h
Protocol: as §2

[10] = test system: CAL-148; assay: as above; conditions: incubation time: 72 h
Protocol: as §2

[11] = test system: CAL-51; assay: as above; conditions: incubation time: 72 h
Protocol: as §2

[12] = test system: CAL-85-1; assay: as above; conditions: incubation time: 72 h
Protocol: as §2

[13] = test system: DU-4475; assay: as above; conditions: incubation time: 72 h
Protocol: as §2

[14] = test system: HCC1143; assay: as above; conditions: incubation time: 72 h
Protocol: as §2

[15] = test system: HCC1599; assay: as above; conditions: incubation time: 72 h
Protocol: as §2

[16] = test system: HCC1937; assay: as above; conditions: incubation time: 72 h
Protocol: as §2

[17] = test system: HDQ-P1; assay: as above; conditions: incubation time: 72 h
Protocol: as §2

[18] = test system: Hs578T; assay: as above; conditions: incubation time: 72 h
Protocol: as §2

[19] = test system: MDA-MB-231; assay: as above; conditions: incubation time: 72 h
Protocol: as §2

[20] = test system: MDA-MB-436; assay: as above; conditions: incubation time: 72 h
Protocol: as §2

[21] = test system: MDA-MB-453; assay: as above; conditions: incubation time: 72 h
Protocol: as §2

[22] = test system: MDA-MB-468; assay: as above; conditions: incubation time: 72 h
Protocol: as §2

[23] = test system: MFM-223; assay: as above; conditions: incubation time: 72 h
Protocol: as §2

[24] = test system: SK-BR-3; assay: as above; conditions: incubation time: 72 h
Protocol: as §2

[25] = test system: CAL-85-1; assay: drug sensitivity score (DSS), CellTiter-Glo (DSS (AUC-based score)); higher = stronger drug effect (viability inhibition or cytotoxicity); extreme values may be limits of the assay; conditions: incubation time: 72 h
How it was run: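 Using 20 µl of cell suspension per well, breast cancer cell lines were seeded into 384-well plates pre-loaded with compound at 5 concentrations in 10-fold steps across a compound-specific 10,000-fold range. Incubation lasted 72 h, after which CellTox Green fluorescence at 485/520 nm and then CellTiter-Glo luminescence, following 10 min at room temperature, were recorded. Each plate was normalised to 0.1 % DMSO and a positive kill control before the drug sensitivity score was derived from the area under the fitted dose-response curve.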

Row | EC50, CellTiter-Blue viability [1] | EC50, CellTiter-Blue viability [3] | EC50, CellTiter-Blue viability [4] | EC50, CellTiter-Blue viability [5] | SMILES | EC50, CellTiter-Blue viability [2] | EC50, CellTiter-Blue viability [6] | normalised viability ([7]; 1 nM) | normalised viability ([8]; 1 nM) | normalised viability ([9]; 1 nM) | normalised viability ([10]; 1 nM) | normalised viability ([11]; 1 nM) | normalised viability ([12]; 1 nM) | normalised viability ([13]; 1 nM) | normalised viability ([14]; 1 nM) | normalised viability ([15]; 1 nM) | normalised viability ([16]; 1 nM) | normalised viability ([19]; 1 nM) | normalised viability ([22]; 1 nM) | normalised viability ([24]; 1 nM) | drug sensitivity score [25] | other results
1 | 798 nM | 604 nM | 2120 nM | 998 nM | O=C(Nc1c[nH]nc1-c1nc2ccc(CN3CCOCC3)cc2[nH]1)NC1CC1 [AT9283] | 144 nM | 886 nM | 96.6% | 98.5% | 87.1% | 91.3% | 107% | 88.9% | 95.5% | 87.1% | 101% | 95.6% | 91.6% | 114% | 104% | 0 | normalised viability ([17]; 1 nM): 103%; normalised viability ([18]; 1 nM): 117%; normalised viability ([20]; 1 nM): 98.8%; normalised viability ([21]; 1 nM): 100%; normalised viability ([23]; 1 nM): 102%
2 | – | – | 270 nM | – | COc1cc(CCc2cc(NC(=O)c3ccc(N4CC(C)NC(C)C4)cc3)n[nH]2)cc(OC)c1 (stereo not drawn) [AZD4547] | – | 46.6 nM | – | – | – | – | – | – | – | – | – | – | – | – | – | 0 | normalised viability ([7]; 0.1 nM): 112%; normalised viability ([8]; 0.1 nM): 111%; normalised viability ([9]; 0.1 nM): 93.6%; normalised viability ([10]; 0.1 nM): 113%; normalised viability ([11]; 0.1 nM): 117%; normalised viability ([12]; 0.1 nM): 89.7%; normalised viability ([13]; 0.1 nM): 95.7%; normalised viability ([14]; 0.1 nM): 96%; normalised viability ([15]; 0.1 nM): 115%; normalised viability ([16]; 0.1 nM): 105%; normalised viability ([17]; 0.1 nM): 139%; normalised viability ([18]; 0.1 nM): 108%; normalised viability ([19]; 0.1 nM): 100%; normalised viability ([20]; 0.1 nM): 94.4%; normalised viability ([21]; 0.1 nM): 105%; normalised viability ([22]; 0.1 nM): 125%; normalised viability ([23]; 0.1 nM): 91.8%; normalised viability ([24]; 0.1 nM): 102%

The remaining lines, values behind:

Row | SMILES | EC50, CellTiter-Blue viability [1] | EC50, CellTiter-Blue viability [3] | EC50, CellTiter-Blue viability [4] | EC50, CellTiter-Blue viability [5] | EC50, CellTiter-Blue viability [2] | EC50, CellTiter-Blue viability [6] | normalised viability ([7]; 1 nM) | normalised viability ([8]; 1 nM) | normalised viability ([9]; 1 nM) | normalised viability ([10]; 1 nM) | normalised viability ([11]; 1 nM) | normalised viability ([12]; 1 nM) | normalised viability ([13]; 1 nM) | normalised viability ([14]; 1 nM) | normalised viability ([15]; 1 nM) | normalised viability ([16]; 1 nM) | normalised viability ([19]; 1 nM) | normalised viability ([22]; 1 nM) | normalised viability ([24]; 1 nM) | drug sensitivity score [25] | other results
3 | COc1ccc(-c2cc3c(C)nc(N)nc3n([C@H]3CC[C@H](OCCO)CC3)c2=O)cn1 | 196 nM | 418 nM | 121 nM | 234 nM | 193 nM | 180 nM | 100% | 96.5% | 120% | 104% | 95.4% | 105% | 106% | 106% | 130% | 90.5% | 118% | 104% | 86.5% | 18.5 | normalised viability ([17]; 1 nM): 75.8%; normalised viability ([18]; 1 nM): 100%; normalised viability ([20]; 1 nM): 103%; normalised viability ([21]; 1 nM): 87.1%; normalised viability ([23]; 1 nM): 102%
4 | Cn1cc(CNCC2CCN(c3ncc(C(=O)NO)cn3)CC2)c2ccccc21 | 146 nM | 18.6 nM | 21.9 nM | 279 nM | 13.3 nM | 33.1 nM | – | – | – | – | – | – | – | – | – | – | – | – | – | – | normalised viability ([7]; 0.1 nM): 98.1%; normalised viability ([8]; 0.1 nM): 88.6%; normalised viability ([9]; 0.1 nM): 89.2%; normalised viability ([10]; 0.1 nM): 103%; normalised viability ([11]; 0.1 nM): 105%; normalised viability ([12]; 0.1 nM): 84.9%; normalised viability ([13]; 0.1 nM): 97.6%; normalised viability ([14]; 0.1 nM): 95.7%; normalised viability ([15]; 0.1 nM): 101%; normalised viability ([16]; 0.1 nM): 106%; normalised viability ([17]; 0.1 nM): 83.6%; normalised viability ([18]; 0.1 nM): 120%; normalised viability ([19]; 0.1 nM): 95.6%; normalised viability ([20]; 0.1 nM): 87.9%; normalised viability ([21]; 0.1 nM): 98.8%; normalised viability ([22]; 0.1 nM): 91.1%; normalised viability ([23]; 0.1 nM): 89.5%; normalised viability ([24]; 0.1 nM): 97.5%
5 | O=C(NC[C@H](O)CO)c1ccncc1Nc1ccc(I)cc1F | – | 7.91 nM | 756 nM | – | 421 nM | – | 96.8% | 111% | 81.3% | 92.3% | 99.6% | 92.1% | 92.6% | 87.6% | 108% | 87.6% | 92.5% | 104% | 92.1% | – | normalised viability ([17]; 1 nM): 103%; normalised viability ([18]; 1 nM): 111%; normalised viability ([20]; 1 nM): 124%; normalised viability ([21]; 1 nM): 87.9%; normalised viability ([23]; 1 nM): 97.9%
6 | CCC/C=C/C=C/C(=O)O[C@H]1/C(=C/C(=O)OC)C[C@H]2C[C@H]([C@@H](C)O)OC(=O)C[C@H](O)C[C@@H]3C[C@H](OC(C)=O)C(C)(C)[C@](O)(C[C@@H]4C/C(=C/C(=O)OC)C[C@H](/C=C/C(C)(C)[C@]1(O)O2)O4)O3 [Bryostatin 1] | – | – | > 100 nM | – | – | – | 105% | – | – | – | – | – | – | – | – | 85.2% | 98.7% | 99.1% | 103% | 0 | normalised viability ([8]; 0.01 nM): 109%; normalised viability ([9]; 0.01 nM): 85.8%; normalised viability ([10]; 0.01 nM): 98.8%; normalised viability ([11]; 0.01 nM): 99.2%; normalised viability ([12]; 0.01 nM): 97.5%; normalised viability ([13]; 0.01 nM): 118%; normalised viability ([14]; 0.01 nM): 114%; normalised viability ([15]; 0.01 nM): 123%; normalised viability ([17]; 0.01 nM): 100%; normalised viability ([18]; 0.01 nM): 106%; normalised viability ([20]; 0.01 nM): 140%; normalised viability ([21]; 0.01 nM): 102%; normalised viability ([23]; 0.01 nM): 96.2%
7 | CO[C@@H](C(=O)N1Cc2[nH]nc(NC(=O)c3ccc(N4CCN(C)CC4)cc3)c2C1)c1ccccc1 [Danusertib] | 1130 nM | 2290 nM | 38.1 nM | 1480 nM | 335 nM | – | 101% | 109% | 81% | 101% | 116% | 77.2% | 107% | 99.3% | 94.1% | 91.3% | 101% | 98.7% | 79.4% | 0 | normalised viability ([17]; 1 nM): 110%; normalised viability ([18]; 1 nM): 96.6%; normalised viability ([20]; 1 nM): 96.5%; normalised viability ([21]; 1 nM): 84.3%; normalised viability ([23]; 1 nM): 53.6%
8 | Cc1nc(Nc2ncc(C(=O)Nc3c(C)cccc3Cl)s2)cc(N2CCN(CCO)CC2)n1 [Dasatinib] | 58.5 nM | 34.5 nM | – | 78.5 nM | 56.3 nM | 427 nM | – | – | – | – | – | – | – | – | – | – | – | – | – | 8.17 | normalised viability ([7]; 0.1 nM): 97.5% and 85.4%; normalised viability ([8]; 0.1 nM): 101% and 89.2%; normalised viability ([9]; 0.1 nM): 104% and 85.6%; normalised viability ([10]; 0.1 nM): 104% and 96.1%; normalised viability ([11]; 0.1 nM): 105% and 114%; normalised viability ([12]; 0.1 nM): 97.2% and 88.5%; normalised viability ([13]; 0.1 nM): 109% and 110%; normalised viability ([14]; 0.1 nM): 102% and 84.5%; normalised viability ([15]; 0.1 nM): 106% and 88.6%; normalised viability ([17]; 0.1 nM): 126% and 109%; normalised viability ([18]; 0.1 nM): 107% and 97.2%; normalised viability ([19]; 0.1 nM): 110% and 86.5%; normalised viability ([20]; 0.1 nM): 94.8% and 91.2%; normalised viability ([21]; 0.1 nM): 103% and 97.2%; normalised viability ([22]; 0.1 nM): 109% and 100%; normalised viability ([23]; 0.1 nM): 99.2% and 94.2%; normalised viability ([24]; 0.1 nM): 98.2% and 92.7%

— the supplement of paper PMC4862054
